From PubChem BioAssay AID330 (DTP/NCI, 2004) come the findings set out here.

The subject of this test is P388 leukemia ip, CD2F1 mice, survival T/C. Put plainly: NCI In Vivo Anticancer Drug Screen. Data for tumor model P388 Leukemia (intraperitoneal) in CD2F1 (CDF1) mice. Conditions: endpoint: median survival time, higher = longer survival. In outline:
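Mice carrying the transplanted tumor received test compound or vehicle. Survival was recorded in each group, and the value is the treated-group measurement divided by that of the vehicle-treated control group.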

[1] abbreviates: dose: 12.5 mg/kg/injection, schedule: Q01DX005 (ip), vehicle: saline with Tween-80.
[2] abbreviates: dose: 5.0 mg/kg/injection, schedule: Q01DX009 (ip), vehicle: saline with Tween-80.
[3] abbreviates: dose: 10.0 mg/kg/injection, schedule: Q01DX009 (ip), vehicle: saline with Tween-80.
The mark [4] stands for this setting: dose: 100.0 mg/kg/injection, schedule: Q04DX003 (ip), vehicle: saline.
Where [5] appears, read: dose: 50.0 mg/kg/injection, schedule: Q01DX005 (ip), vehicle: saline with Tween-80.
Where [6] appears, read: dose: 100.0 mg/kg/injection, schedule: Q01DX005 (ip), vehicle: saline with Tween-80.
Setting [7] is: dose: 200.0 mg/kg/injection, schedule: Q01DX005 (ip), vehicle: saline with Tween-80.

SMILES strings stand for the structures. Values joined by “and” are separate entries in the source; they are usually repeats but may differ in a detail not shown here. Identical values can stand only once. Inconclusive results and toxic doses are left out.

For `CCC1(C2OC(C3OC(O)(CO)C(C)CC3C)CC2C)CCC(C2(C)CCC3(CC(O)C(C)C(C(C)C(OC)C(C)C(=O)O)O3)O2)O1` (configuration not stated), the T/C is, setting by setting: (dose: 3.13 mg/kg/injection, schedule: Q01DX005 (ip), vehicle: saline with Tween-80) 110 % of control and 112 % of control; (dose: 6.25 mg/kg/injection, schedule: Q01DX005 (ip), vehicle: saline with Tween-80) 108 % of control and 111 % of control and 118 % of control; under setting [1], 120 % of control.

`COc1cccc2c1C(=O)c1c(O)c3c(c(O)c1C2=O)CC(O)(C1(C)OCC(C)(C)CO1)CC3OC1CC(N)C(O)C(C)O1` (configuration not stated): the T/C is 104 % of control (dose: 3.13 mg/kg/injection, schedule: Q04DX003 (ip), vehicle: water); 106 % of control (dose: 6.25 mg/kg/injection, schedule: Q04DX003 (ip), vehicle: water); 111 % of control (dose: 12.5 mg/kg/injection, schedule: Q04DX003 (ip), vehicle: water); 104 % of control (dose: 25.0 mg/kg/injection, schedule: Q04DX003 (ip), vehicle: water); 95 % of control (dose: 50.0 mg/kg/injection, schedule: Q04DX003 (ip), vehicle: water).

For the molecule `COc1cc(C=Nc2cc(Br)cc(Br)c2)ccc1N(CCCl)CCCl`, the T/C is, setting by setting: (dose: 0.44 mg/kg/injection, schedule: Q01DX009 (ip), vehicle: saline with Tween-80) 120 % of control; (dose: 0.66 mg/kg/injection, schedule: Q01DX009 (ip), vehicle: saline with Tween-80) 105 % of control; (dose: 1.5 mg/kg/injection, schedule: Q01DX009 (ip), vehicle: saline with Tween-80) 170 % of control; (dose: 2.25 mg/kg/injection, schedule: Q04DX003 (ip), vehicle: other) 111 % of control; (dose: 2.5 mg/kg/injection, schedule: Q01DX009 (ip), vehicle: saline with Tween-80) 165 % of control; under setting [2], 170 % of control. Moreover, the T/C (dose: 9.0 mg/kg/injection, schedule: Q04DX003 (ip), vehicle: other) was 165 % of control; the T/C under setting [3] is 110 % of control; the T/C (dose: 18.0 mg/kg/injection, schedule: Q04DX003 (ip), vehicle: other) is 223 % of control.

`O=C(O)C(=O)c1ccc(-c2ccccc2)cc1`: the T/C was 104 % of control (dose: 50.0 mg/kg/injection, schedule: Q04DX003 (ip), vehicle: saline) and 100 % of control under setting [4].

Turning to `COC1=NC2=NC(OC)=NC3=C(Br)C=C(Br)C(=N1)N23`, the T/C (dose: 60.0 mg/kg/injection, schedule: Q01DX005 (ip), vehicle: Klucel (hydroxypropylcellulose) (HPC)) is 91 % of control; the T/C (dose: 120.0 mg/kg/injection, schedule: Q01DX005 (ip), vehicle: Klucel (hydroxypropylcellulose) (HPC)) was 92 % of control; the T/C (dose: 240.0 mg/kg/injection, schedule: Q01DX005 (ip), vehicle: Klucel (hydroxypropylcellulose) (HPC)) was 87 % of control.

`CCOCCOc1nc(C)cc(C)c1C#N`: the T/C under setting [5] is 102 % of control, the T/C under setting [6] is 105 % of control and the T/C under setting [7] was 96 % of control.

Take `CNC(=O)Oc1ccc2c(c1)[C@]1(C)CCN(C)[C@@H]1N2C`: the T/C was 98 % of control (dose: 0.05 mg/kg/injection, schedule: Q01DX005 (ip), vehicle: saline with Tween-80); 102 % of control (dose: 0.05 mg/kg/injection, schedule: Q01DX009 (ip), vehicle: saline); 99 % of control (dose: 0.1 mg/kg/injection, schedule: Q01DX005 (ip), vehicle: saline with Tween-80); 101 % of control (dose: 0.1 mg/kg/injection, schedule: Q01DX009 (ip), vehicle: saline); 99 % of control (dose: 0.2 mg/kg/injection, schedule: Q01DX005 (ip), vehicle: saline with Tween-80); 97 % of control (dose: 0.2 mg/kg/injection, schedule: Q01DX009 (ip), vehicle: saline). Besides, the T/C by setting is: (dose: 0.4 mg/kg/injection, schedule: Q01DX005 (ip), vehicle: saline with Tween-80) 93 % of control; (dose: 0.4 mg/kg/injection, schedule: Q01DX009 (ip), vehicle: saline) 111 % of control.

Regarding `CCC[CH2][Sn]([N]=C=S)([N]=C=S)[N]=C=S.O=P(c1ccccc1)(c1ccccc1)c1ccccc1.O=P(c1ccccc1)(c1ccccc1)c1ccccc1`, the T/C was 98 % of control under setting [4]; 100 % of control (dose: 200.0 mg/kg/injection, schedule: Q04DX003 (ip), vehicle: saline); 99 % of control (dose: 400.0 mg/kg/injection, schedule: Q04DX003 (ip), vehicle: saline).

With `O=C1CCCc2[nH]c3ccc(Cl)cc3c21`, the T/C is 92 % of control under setting [5], 99 % of control under setting [6] and 92 % of control under setting [7].

Turning to `O=C(Nc1ccc(C2=NCCN2)c(O)c1)c1ccc(C(=O)Nc2ccc(C3=NCCN3)c(O)c2)cc1`, the T/C under setting [5] was 99 % of control, the T/C under setting [6] is 103 % of control and the T/C under setting [7] was 107 % of control.

Take `NCC1CC2CCC1CC2` (configuration not stated): the T/C was 99 % of control under setting [1]; 100 % of control (dose: 25.0 mg/kg/injection, schedule: Q01DX005 (ip), vehicle: saline with Tween-80); 100 % of control and 102 % of control under setting [5].

With `CCCCCCCC/C=C\CCCCCCCC(=O)NCCCN(C)C`, the T/C (dose: 12.5 mg/kg/injection, schedule: Q01DX009 (ip), vehicle: saline) was 98 % of control; the T/C (dose: 25.0 mg/kg/injection, schedule: Q01DX009 (ip), vehicle: saline) was 91 % of control; the T/C (dose: 50.0 mg/kg/injection, schedule: Q01DX009 (ip), vehicle: saline with Tween-80) is 112 % of control.

For the molecule `O=C(Nc1ccccc1F)N(CCO)C1CCCCC1`, the T/C by setting is: (dose: 60.0 mg/kg/injection, schedule: Q01DX005 (ip), vehicle: saline with Tween-80) 93 % of control; (dose: 120.0 mg/kg/injection, schedule: Q01DX005 (ip), vehicle: saline with Tween-80) 93 % of control; (dose: 240.0 mg/kg/injection, schedule: Q01DX005 (ip), vehicle: saline with Tween-80) 98 % of control.

As to `COC1=NC=CC=CC1`, the T/C is, setting by setting: (dose: 6.25 mg/kg/injection, schedule: Q01DX009 (ip), vehicle: saline with Tween-80) 103 % of control; (dose: 12.5 mg/kg/injection, schedule: Q01DX009 (ip), vehicle: saline with Tween-80) 111 % of control; (dose: 25.0 mg/kg/injection, schedule: Q01DX009 (ip), vehicle: saline with Tween-80) 107 % of control.

As to `O=C1CCC(C(=O)N/N=C\C=N/NC(=O)C2CCC(=O)N2)N1` (configuration not stated), the T/C reads like this: under setting [2], 101 % of control; under setting [3], 103 % of control; (dose: 20.0 mg/kg/injection, schedule: Q01DX009 (ip), vehicle: saline with Tween-80) 103 % of control.

Regarding `CCN(CC)CCNc1c(OC)c(OC)cc2nccnc12`, the T/C is, setting by setting: (dose: 25.0 mg/kg/injection, schedule: Q01DX005 (ip), vehicle: suspension in saline) 98 % of control; (dose: 50.0 mg/kg/injection, schedule: Q01DX005 (ip), vehicle: suspension in saline) 98 % of control; (dose: 100.0 mg/kg/injection, schedule: Q01DX005 (ip), vehicle: suspension in saline) 98 % of control.

For the molecule `CC(C)(C)C[C](C)(c1ccccc1)[Sn]([CH3])([CH3])[CH3]` (configuration not stated), the T/C is 94 % of control (dose: 50.0 mg/kg/injection, schedule: Q01DX009 (ip), vehicle: Klucel (hydroxypropylcellulose) (HPC)); 102 % of control (dose: 100.0 mg/kg/injection, schedule: Q01DX009 (ip), vehicle: Klucel (hydroxypropylcellulose) (HPC)); 102 % of control (dose: 200.0 mg/kg/injection, schedule: Q01DX009 (ip), vehicle: Klucel (hydroxypropylcellulose) (HPC)).

Take `CC(=O)OCC1OC(c2ccccc2)C/C(=N/O)C1OC(C)=O` (configuration not stated): the T/C is, setting by setting: (dose: 50.0 mg/kg/injection, schedule: Q01DX005 (ip), vehicle: Klucel (hydroxypropylcellulose) (HPC)) 96 % of control; (dose: 100.0 mg/kg/injection, schedule: Q01DX005 (ip), vehicle: Klucel (hydroxypropylcellulose) (HPC)) 93 % of control; (dose: 200.0 mg/kg/injection, schedule: Q01DX005 (ip), vehicle: Klucel (hydroxypropylcellulose) (HPC)) 94 % of control.

Consider `COc1cc2c[n+]3c4c(cccc4c2cc1OC)CCC3`, for which the T/C was 109 % of control (dose: 12.5 mg/kg/injection, schedule: Q01DX009 (ip), vehicle: water); 108 % of control (dose: 25.0 mg/kg/injection, schedule: Q01DX009 (ip), vehicle: water); 110 % of control (dose: 50.0 mg/kg/injection, schedule: Q01DX009 (ip), vehicle: water).

Consider `Clc1ccc(CSSC(Cl)(Cl)Cl)cc1`, for which the T/C reads like this: (dose: 50.0 mg/kg/injection, schedule: Q01DX005 (ip), vehicle: acetone) 102 % of control; (dose: 100.0 mg/kg/injection, schedule: Q01DX005 (ip), vehicle: acetone) 105 % of control; (dose: 200.0 mg/kg/injection, schedule: Q01DX005 (ip), vehicle: acetone) 107 % of control.
